Measured values as given in patent US4172145A, “Benzo(b)furylacetic acid derivatives to reduce inflammation” (priority 1975, dated 1979).
Read-outs that look alike come from different tables or passages of the source.

Key:
[1] = system: acetic acid-induced writhing reactions in mice; test: Analgesic activity in mice (AcOH Writhing Method); format: in vivo, mouse (male dd-strain); settings: mouse, oral; for inhibition in vivo at 150 mg/kg / inhibition in vivo at 300 mg/kg: 1 h before acetic acid, read-out: Analgesic Effect (AcOH Writhing Method), Suppression Ratio; for ED50: read-out: Analgesic Effect (AcOH Writhing Method), ED50
Method: In this test, three groups, each consisting of 10 mice (male dd-strain; weight: 19-21 g) were used. The compounds shown in Table 3 were administered orally to the test mice. One hour after the administration, the mice were treated with 0.1 ml/10 g of 0.7% acetic acid solution in physiological saline by intraperitoneal injection according to the method of Koster et al [Koster, R., et al; Fed. Proc., 18, 412 (1959)]. Ten minutes after the treatment, the number of writhing reactions occurring in the mice was counted.

[2] = in vivo; settings: rat, po
Method: A test group consisting of 10-15 rats (male Wistar strain; weight: 180-220 g) was used in this test. Each rat was fasted for 20 hours, but water was allowed ad libitum. The compounds shown in Table 5 were administered orally. After a 20-hour interval during which the rats were not fed but were allowed water, each rat was administered under ether anesthesia with 0.5 ml per 100 g body weight of a 5% solution of pontamine sky blue 6BX in saline (pH 7.2--adjusted with 0.5 N HCl) by intravenous injection. 15 minutes after administration each rat was killed. The stomach was removed and maintained in a 1% formalin solution. After about 2 hours, the stomach was opened along the greater curvature and the length of lesions (dark blue areas against pale blue background) in the glandular portion was measured under a dissecting microscope (10×) provided with a square grid. The sum of the lengths (mm) of lesions was used as ulcer index.

[3] = in vivo; settings: oral, observed one week, Litchfield and Wilcoxon
Method: In this test, five groups, each consisting of 5 mice (male dd strain; weight: 19-21 g) and 5 rats (male Wistar strain; weight: 100-120 g) were used. […] The LD50 was calculated according to the method of Litchfield and Wilcoxon [Journal of Pharmacol. and Exper. Therap.

[4] = system: carrageenin-induced edema on the hind paw of rats; test: Anti-edema effect on carrageenin-induced edema on the hind paw of rats (Carrageenin Edema Method); format: in vivo, rat (male Wistar strain); settings: rat, oral, 3 hours after carrageenin; for inhibition in vivo at 75 mg/kg / inhibition in vivo at 150 mg/kg / inhibition in vivo at 300 mg/kg: read-out: Anti-edema Effect, Suppression Ratio
Method: The anti-edema effect was determined according to the method of Yamazaki et al [Yamazaki, H., et al; Folia Pharmacologica Japonica, 63, 302 (1967)].
In this test, a group consisting of five rats (male Wistar strain: weight 100-120 g) was used for the test and control groups. The compounds shown in Table 2 were administered orally to the rats of the test group. After one hour, 0.1 ml of a 1% carrageenin solution (phlogistic agent) was further administered to each rat by subcutaneous injection in one hind paw. To each rat of the control group, 0.1 ml of a 1% carrageenin solution was also administered in a similar manner to that for test rats. 1, 3 and 5 hours after administration of the phlogistic agent, the swelling ratio was calculated by means of the following equation: […]
Test group [formula] in which b: swelling ratio
B: volume of a hind paw without administration of phlogistic agent
B': volume of a hind paw administered with phlogistic agent
Control group [formula] in which a: swelling ratio
A: volume of a hind paw without administration of phlogistic agent
A': volume of a hind paw administered with phlogistic agent
The anti-edema effect was expressed as the suppression ratio of the edema in comparison with the control group to which the test compound had not been administered. The suppression ratio of the edema was determined 3 hours after administration of the phlogistic agent and was calculated by means of the following equation: [formula] in which a and b are as hereinbefore defined.

[5] = system: pain threshold of inflamed and not inflamed paws of rats; test: Analgesic activity in rats (Randall-Selitto Method); format: in vivo, rat (male Wister strain); settings: Rattus norvegicus, po, P.O. 150 mg/kg, read-out: Analgesic Coefficient
Method: A group consisting of 6-7 rats (male Wister strain; weight: 100-120 g) was used for the test and control groups in this test. Each rat of both groups was treated with 0.1 ml of a 1% carrageenin solution as phlogistic agent by subcutaneous injection in one hind paw. 3 hours after the administration, pressure was applied to the treated paw of each rat by means of a pressing device (manufactured by Ugobasile S. A., Italy). The threshold of pain induced by press was measured with reference to the shriek and struggle according to the method of Randall and Selitto [Randall, L. O. and Selitto, J. J.; Arch, Int. Pharmocodyn., 111, 409 (1957)]. From each group 5 rats having a good response reaction, i.e. the pain threshold was not more than 70 g, were respectively selected. […] 1, 2 and 3 hours after administration, pressure was again applied to both the inflamed and not inflamed paws of the test rats and the pain threshold was measured. On the other hand, without the administration of the active compound, the pressure was applied to both the inflamed and not inflamed paws of the selected 5 rats of the control group and the pain threshold was measured. The inflamed paws of the test and control groups were compared with each other. Also the not inflamed paws of the both groups were compared with each other.
The analgesic coefficient was calculated by means of the following equation, and the larger analgesic coefficient the better analgesic activity. [formula] in which X: analgesic coefficient (%)
P1 : threshold (g) of the test rats administered with active compounds
P2 : threshold (g) of the control rats without administration of active compound

[6] = Eur. J. Med. Chem. 1975-10, N. 2, p. 182-186; cited from earlier work
[7] = Eur. J. Med. Chem. 1975-10, N. 2, p. 182-186; cited from earlier work; remark: listed apart in the source
[8] = mouse, read-out: Acute Toxicity (P.O.), LD50, Mouse
[9] = rat, read-out: Acute Toxicity (P.O.), LD50, Rat

Row | Compound | inhibition in vivo at 150 mg/kg [1] | inhibition in vivo at 300 mg/kg [1] | ED50 [1] | TD50 at 20 h [2] | LD50 at 168 h [3, 8] | LD50 at 168 h [3, 9] | inhibition in vivo at 75 mg/kg [4] | inhibition in vivo at 150 mg/kg [4] | inhibition in vivo at 300 mg/kg [4] | ED50 [4] | change in vivo at 150 mg/kg ([5]; 1 h, inflamed paw, 1 hr.) | change in vivo at 150 mg/kg ([5]; 1 h, not inflamed paw, 1 hr.) | change in vivo at 150 mg/kg ([5]; 2 h, inflamed paw, 2 hr.) | change in vivo at 150 mg/kg ([5]; 2 h, not inflamed paw, 2 hr.) | change in vivo at 150 mg/kg ([5]; 3 h, inflamed paw, 3 hr.) | change in vivo at 150 mg/kg ([5]; 3 h, not inflamed paw, 3 hr.) | anti-inflammatory activity versus phenylbutazone [6] | toxicity versus phenylbutazone [7]
1 | Cc1ccc2oc(CC(=O)O)c(C)c2c1 [Test Compound 4, 3,5-dimethyl-2-benzo(b)furylacetic acid] | 11.2% | 41.4% | 350 mg/kg | > 300 mg/kg | 1310 mg/kg | > 1000 mg/kg | 43.8% | 56.2% | 70.9% | 100 mg/kg | 35.4% | 0% | 18.8% | 0% | 7.1% | 0% |  | 
2 | Cc1c(CC(=O)O)oc2ccc(F)cc12 [Test Compound 5, 5-fluoro-3-methyl-2-benzo(b)furylacetic acid] | 26% | 41.4% | 380 mg/kg | > 300 mg/kg | 1750 mg/kg | > 1000 mg/kg | 37.9% | 60% | 71.9% | 105 mg/kg | 38.6% | 0% | 23.5% | 0% | 19.3% | 0% |  | 
3 | O=C(O)Cc1cc2cc(Cl)ccc2o1 [chloro-5 benzoful-2-acetate] |  |  |  |  |  |  |  |  |  |  |  |  |  |  |  |  | lower anti-inflammatory activity | minor toxicity than phenylbutazone
4 | O=C(O)c1cc2cc(Cl)ccc2o1 [chloro-5-benzo(b)furyl-2 carboxylic acid] |  |  |  |  |  |  |  |  |  |  |  |  |  |  |  |  | lower anti-inflammatory activity | minor toxicity than phenylbutazone
5 | COc1ccc2oc(CC(=O)O)cc2c1 [methoxy-5 benzo(b)furyl-2-acetate] |  |  |  |  |  |  |  |  |  |  |  |  |  |  |  |  | lower anti-inflammatory activity | minor toxicity than phenylbutazone
